Test results reported in paper PMC12193579, “Pro-Apoptotic Activity of 1-(4,5,6,7-Tetrabromo-1H-benzimidazol-1-yl)propan-2-one, an Intracellular Inhibitor of PIM-1 Kinase in Acute Lymphoblastic Leukemia and Breast Cancer Cells” (International Journal of Molecular Sciences, 2025).

Columns and labels:
CCRF-CEM cells [1] = assay: cell cycle progression by flow cytometry, CCRF-CEM; assay type: cell-based, human; settings: 16 µM, 48 h
Protocol: Since CK2 and PIM kinases regulate cell cycle progression, their inhibition may alter the distribution of cells across different cell cycle phases. […] For control cells, the percentage of G2/M cells was 17%. In addition to those changes, we observed cells in the sub-G1 phase, which are apoptotic cells. Accumulation of cells in this phase reflects DNA degradation characteristic of apoptotic cells. The largest percentage of these cells, i.e., 32% was determined in 16 µM 1-treated cells (Figure 6a,b).
CCRF-CEM and MCF-7 cells were cultured in 6-well plates and treated with the tested compounds for 48 h. After exposure to the compounds, the cells were collected, washed with cold PBS, and fixed in 70% ethanol at –20 °C for at least 24 h. Subsequently, the cells were washed in PBS and stained according to the procedure previously described by our group. The cellular DNA content was measured by flow cytometry using a BD Accuri C6 Plus flow cytometer (BD Biosciences, San Jose, CA, USA). The resulting DNA histograms were analyzed with BD Accuri C6 Plus software (San Diego, CA, USA) to assess the distribution of cells across different phases of the cell cycle.

[2] = tested on: CCRF-CEM (acute lymphoblastic leukemia); assay: MTT-based viability assay, CCRF-CEM; assay type: cell-based, human
Protocol: 3. The cytotoxicity of the newly obtained inhibitors, i.e., 1, 2, and 4 was tested towards four cell lines, i.e., CCRF-CEM (acute lymphoblastic leukemia ALL), MCF-7 (breast carcinoma), MDA-MB-231 (triple negative breast carcinoma), and Vero (Cercopithecus aethiops kidney).
The CCRF-CEM (acute lymphoblastic leukemia, ALL) and MDA-MB-231 (triple-negative breast adenocarcinoma) cell lines were obtained from the European Collection of Authenticated Cell Cultures (ECACC), while the MCF-7 (hormone-dependent breast adenocarcinoma) and Vero (Cercopithecus aethiops kidney) cell lines were purchased from the American Type Culture Collection (ATCC, Manassas, VA, USA). CCRF-CEM cells were maintained in RPMI-1640 medium, whereas MCF-7 and MDA-MB-231 cells were cultured in DMEM (Sigma-Aldrich Chemical Company, St. Louis, MO, USA). Vero cells were cultured in minimum essential medium eagle (MEM; Sigma-Aldrich). All media were supplemented with 10% fetal bovine serum (FBS), 2 mM L-glutamine, and antibiotics (100 U/mL penicillin and 100 µg/mL streptomycin) (Sigma-Aldrich). Cells were grown in 75-cm^2 culture flasks (Googlab Scientific, Rakocin, Poland) in a humidified atmosphere containing 5% CO2 at 37 °C. All experiments were performed using exponentially growing cultures. Stock solutions of the test compounds were prepared in DMSO and stored at –80 °C for up to one month.
Following incubation with the tested compounds, the MTT assay was carried out as previously described. Optical density was measured at 570 nm using a BioTek microplate reader (Winooski, VT, USA). All measurements were performed in at least three independent biological replicates.

MCF-7 cells = assay: mitochondrial membrane potential (ΔΨm) JC-1 assay, MCF-7; assay type: cell-based, human; settings: 48 h
Protocol: (§1) The mitochondrial membrane potential was evaluated by flow cytometry using 5,5′,6,6′-tetrachloro-1,1′,3,3′-tetraethylbenzimidazolocarbocyanine iodide (JC-1; Sigma-Aldrich), as previously described.

[3] = tested on: caspase-3 in CCRF-CEM cells; assay: caspase-3 activation, flow cytometry, CCRF-CEM; assay type: cell-based, human; settings: 16 µM, 24 h
Protocol: Since caspase-3 is a key protease activated in the early stages of apoptosis, we next investigated whether apoptosis in CCRF-CEM cells is mediated through caspase-3 activation. Both cpd. […] 1. The results are consistent with the previously observed pro-apoptotic properties of derivative 1.
Caspase-3 activity was measured using the FITC Active Caspase-3 Apoptosis Kit (BD Pharmingen, San Jose, CA, USA) according to the manufacturer’s instructions. The stained cells were measured with a BD Accuri C6 Plus flow cytometer.

[4] = tested on: CK2 in CCRF-CEM cells (Ser529 in NF-κB p65); assay: Western blot of phosphorylated p65 (Ser529), intracellular CK2 inhibition, CCRF-CEM; assay type: cell-based, human; settings: 16 µM, 24 h, untreated cells = 1
Protocol: After 24 h of treatment, we assessed site-specific phosphorylation of Ser529 in NF-κB p65 and Ser112 in BAD—a marker of PIM kinase activity—using Western blot analysis (Figure 8). The data for BAD confirmed intracellular inhibition of this kinase by the tested compounds in both cell lines in a dose-dependent manner. A statistically significant decrease in phosphorylated BAD was observed following treatment with 16 µM of compound 1, with relative protein levels reduced to 0.48 and 0.46 in CCRF-CEM and MCF-7 cells, respectively (Figure 8a–c).
Exponentially growing CCRF-CEM or MCF-7 cells were seeded at a density of 6 × 10^5 cells per 6 cm dish. Compounds were then added, with a final DMSO concentration of 0.5%. Cell lysates were prepared as previously described. The ECL substrate was used for signal detection, and the immunoblots were scanned using a G:BOX Chemi imaging system (Syngene, Cambridge, UK) equipped with GeneSys software, Version 1.4.3.0 (Syngene, Cambridge, UK).
For densitometric analysis, immunoblots were scanned using the G:BOX Chemi system (Syngene), and the band intensities of phosphorylated and total proteins were quantified with GeneSys software (Syngene, Cambridge, UK). The levels of phosphorylated proteins were normalized to GAPDH, with the value for untreated cells set to 1, and subsequently expressed as a percentage relative to the appropriate control.

[5] = target: T1, recombinant human CK2 catalytic subunit (rhCK2α) (Homo sapiens, UniProt P68400); assay: radiometric P81 filter isotopic kinase assay, CK2α; assay type: biochemical
T1 construct: made in house
T1 sequence (P68400 whole entry): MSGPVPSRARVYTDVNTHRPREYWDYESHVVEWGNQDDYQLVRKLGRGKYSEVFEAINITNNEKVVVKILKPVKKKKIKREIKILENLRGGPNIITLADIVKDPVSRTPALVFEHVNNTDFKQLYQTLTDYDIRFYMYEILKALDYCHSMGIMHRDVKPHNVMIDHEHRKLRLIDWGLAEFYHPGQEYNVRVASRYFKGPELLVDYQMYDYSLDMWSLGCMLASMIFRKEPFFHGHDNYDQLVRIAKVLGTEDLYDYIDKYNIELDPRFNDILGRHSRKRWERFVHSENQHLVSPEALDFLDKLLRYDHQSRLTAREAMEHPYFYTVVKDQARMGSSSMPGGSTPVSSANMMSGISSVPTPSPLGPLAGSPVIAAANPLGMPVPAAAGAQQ
Protocol: Synthetic peptide […] served as the substrate for CK2, while peptide […] was used as the substrate for PIM-1.
The synthesized compounds were evaluated for their inhibitory activity against human CK2α, the human CK2 holoenzyme, and PIM-1 using the P81 filter-based isotopic assay, as previously described. […] The experimental data were fitted to a dose–response curve using non-linear regression analysis (variable slope) Y = Bottom + (Top − Bottom)/(1 + 10^((LogIC50 − X) × HillSlope) equation in GraphPad Prism (Prism 9, version 9.0.1).

CCRF-CEM cells [6] = assay: mitochondrial membrane potential (ΔΨm) JC-1 assay, CCRF-CEM; assay type: cell-based, human; settings: 48 h
Protocol: as §1

IC50 ([2]; Homo sapiens, CCRF-CEM, MTT, 48 h, read-out: IC50 [µM] CCRF-CEM): 12.4 ± 0.82 µM | IC50 [5]: 6.65 ± 0.74 µM | remaining activity at 2 µM ([5]; cpd. concentration 2 μM, read-out: CK2α Residual Activity [%]): 58.5 ± 2.2% | remaining activity at 5 µM ([5]; cpd. concentration 5 μM, read-out: CK2α Residual Activity [%]): 32.3 ± 0.3% | remaining activity at 20 µM ([5]; cpd. concentration 20 μM, read-out: CK2α Residual Activity [%]): 10.2 ± 0.6%
SMILES: CC(=O)Cn1cnc2c(Br)c(Br)c(Br)c(Br)c21 [compound 1, 1-(4,5,6,7-tetrabromo-1H-benzimidazol-1-yl)propan-2-one]
CCRF-CEM cells in the sub-G1 phase (CCRF-CEM cells [1]): 32% | CCRF-CEM cells in the G2/M phase (CCRF-CEM cells [1]; control 17%): 10% | CCRF-CEM cells in the S phase (CCRF-CEM cells [1]; control 33%): 20% | SI (selectivity index) CCRF-CEM ([2]; IC50 for Vero/IC50 for cancer cells): 1.62 | MCF-7 cells with reduced ΔΨm (MCF-7 cells; 16 µM): 26% | MCF-7 cells with reduced ΔΨm (MCF-7 cells; 32 µM): 19% | CCRF-CEM cells with the active caspase-3 [3]: 60% | relative level of phosphorylated p65 (Ser529), CCRF-CEM [4]: 0.46 | CCRF-CEM cells with reduced ΔΨm (CCRF-CEM cells [6]; 16 µM): 76% | CCRF-CEM cells with reduced ΔΨm (CCRF-CEM cells [6]; 32 µM): 99.4%
